# Assay results: ChEMBL document CHEMBL3390836, “Mannich- and LedererManasse-based analogues of the natural product S-(+)-curcuphenol as cancer proliferation and migration inhibitors” (Medchemcomm, 2012)
# Experiments:
# Format in all cases: functional
# MCF7 = test: Cytotoxicity against human MCF7 cells assessed as cell growth at 10^-8 M after 48 hrs by SRB assay relative to control; details: MCF7, 48 h, read-out: Activity
# SK-MEL-2 = test: Cytotoxicity against human SK-MEL-2 cells assessed as cell growth at 10^-4 M after 48 hrs by SRB assay relative to control; details: SK-MEL-2, 48 h, read-out: Activity
# HL-60(TB) = test: Cytotoxicity against human HL-60(TB) cells assessed as cell growth at 10^-6 M after 48 hrs by SRB assay relative to control; details: HL-60, 48 h, read-out: Activity
# SK-MEL-5 = test: Cytotoxicity against human SK-MEL-5 cells assessed as cell growth at 10^-6 M after 48 hrs by SRB assay relative to control; details: SK-MEL-5, 48 h, read-out: Activity
# [1] = Cytotoxicity against human NCI-ADR-RES cells assessed as cell growth at 10^-6 M after 48 hrs by SRB assay relative to control; details: read-out: Activity
# U-251 [2] = test: Cytotoxicity against human U251 cells assessed as cell growth at 10^-4 M after 48 hrs by SRB assay relative to control; details: U-251, 48 h, read-out: Activity
# [3] = Cytotoxicity against human NCI-ADR-RES cells after 48 hrs by SRB assay
# K562 = test: Cytotoxicity against human K562 cells after 48 hrs by SRB assay; details: K562, 48 h; for CC50: read-out: LC50 (the source's name)
# NCI-H460 [4] = test: Cytotoxicity against human NCI-H460 cells assessed as cell growth at 10^-7 M after 48 hrs by SRB assay relative to control; details: NCI-H460, 48 h, read-out: Activity
# MDA-MB-231 [5] = test: Cytotoxicity against human MDA-MB-231 cells assessed as cell growth at 10^-7 M after 48 hrs by SRB assay relative to control; details: MDA-MB-231, 48 h, read-out: Activity
# A498 = test: Cytotoxicity against human A498 cells after 48 hrs by SRB assay; details: A498, 48 h; for CC50: read-out: LC50 (the source's name)
# T47D [6] = test: Cytotoxicity against human T47D cells assessed as cell growth at 10^-6 M after 48 hrs by SRB assay relative to control; details: read-out: Activity
# U-251 [7] = test: Cytotoxicity against human U251 cells assessed as cell growth at 10^-7 M after 48 hrs by SRB assay relative to control; details: U-251, 48 h, read-out: Activity
# HT-29 = test: Cytotoxicity against human HT-29 cells assessed as cell growth at 10^-8 M after 48 hrs by SRB assay relative to control; details: HT-29, 48 h, read-out: Activity
# [8] = Cytotoxicity against human HCT15 cells after 48 hrs by SRB assay; details: HCT-15, 48 h; for CC50: read-out: LC50 (the source's name)
# SNB-75 = test: Cytotoxicity against human SNB75 cells assessed as cell growth at 10^-7 M after 48 hrs by SRB assay relative to control; details: SNB-75, 48 h, read-out: Activity
# DU-145 = test: Cytotoxicity against human DU145 cells assessed as cell growth at 10^-7 M after 48 hrs by SRB assay relative to control; details: DU-145, 48 h, read-out: Activity
# Malme-3M = test: Cytotoxicity against human MALME-3M cells assessed as cell growth at 10^-8 M after 48 hrs by SRB assay relative to control; details: read-out: Activity
# LOX IMVI [9] = test: Cytotoxicity against human LOXIMVI cells after 48 hrs by SRB assay
# T47D [10] = test: Cytotoxicity against human T47D cells assessed as cell growth at 10^-7 M after 48 hrs by SRB assay relative to control; details: read-out: Activity
# [11] = Cytotoxicity against human EKVX cells after 48 hrs by SRB assay
# MDA-MB-231 [12] = test: Cytotoxicity against human MDA-MB-231 cells assessed as cell growth at 10^-8 M after 48 hrs by SRB assay relative to control; details: MDA-MB-231, 48 h, read-out: Activity
# LOX IMVI [13] = test: Cytotoxicity against human LOXIMVI cells assessed as cell growth at 10^-6 M after 48 hrs by SRB assay relative to control; details: read-out: Activity
# NCI-H460 [14] = test: Cytotoxicity against human NCI-H460 cells assessed as cell growth at 10^-4 M after 48 hrs by SRB assay relative to control; details: NCI-H460, 48 h, read-out: Activity
# [15] = Cytotoxicity against human EKVX cells assessed as cell growth at 10^-8 M after 48 hrs by SRB assay relative to control; details: read-out: Activity
# HOP-62 = test: Cytotoxicity against human HOP62 cells assessed as cell growth at 10^-6 M after 48 hrs by SRB assay relative to control; details: HOP-62, 48 h, read-out: Activity
# LOX IMVI [16] = test: Cytotoxicity against human LOXIMVI cells assessed as cell growth at 10^-4 M after 48 hrs by SRB assay relative to control; details: read-out: Activity
# 786-0 = test: Cytotoxicity against human 786-0 cells assessed as cell growth at 10^-7 M after 48 hrs by SRB assay relative to control; details: 786-0, 48 h, read-out: Activity
# MDA-MB-435 = test: Cytotoxicity against human MDA-MB-435 cells assessed as cell growth at 10^-8 M after 48 hrs by SRB assay relative to control; details: MDA-MB-435, 48 h, read-out: Activity
# SF-295 = test: Cytotoxicity against human SF295 cells after 48 hrs by SRB assay; details: SF-295, 48 h; for CC50: read-out: LC50 (the source's name)
# ACHN [17] = test: Cytotoxicity against human ACHN cells assessed as cell growth at 10^-7 M after 48 hrs by SRB assay relative to control; details: read-out: Activity
# SNB-19 = test: Cytotoxicity against human SNB19 cells assessed as cell growth at 10^-7 M after 48 hrs by SRB assay relative to control; details: SNB-19, 48 h, read-out: Activity
# KM12 = test: Cytotoxicity against human KM12 cells assessed as cell growth at 10^-6 M after 48 hrs by SRB assay relative to control; details: KM12, 48 h, read-out: Activity
# COLO 205 = test: Cytotoxicity against human COLO205 cells assessed as cell growth at 10^-4 M after 48 hrs by SRB assay relative to control; details: COLO 205, 48 h, read-out: Activity
# ACHN [18] = test: Cytotoxicity against human ACHN cells assessed as cell growth at 10^-6 M after 48 hrs by SRB assay relative to control; details: read-out: Activity
# [19] = Cytotoxicity against human OVCAR4 cells assessed as cell growth at 10^-8 M after 48 hrs by SRB assay relative to control; details: OVCAR-4, 48 h, read-out: Activity
# [20] = Cytotoxicity against human PC3 cells assessed as cell growth at 10^-4 M after 48 hrs by SRB assay relative to control; details: PC-3, 48 h, read-out: Activity
smiles,measurement,setting,value
CC(C)=CCC[C@H](C)c1ccc(C)c2c1OCN(CC1CCNCC1)C2,growth at 0.01 µM,MCF7,98%
same,growth at 100 µM,SK-MEL-2,-78%
same,growth at 1 µM,HL-60(TB),82%
same,growth at 1 µM,SK-MEL-5,96%
same,growth at 1 µM,[1],102%
same,growth at 100 µM,U-251 [2],-87%
same,GI50,[3],16.8 µM
same,"LC50 (lethal concentration, 50% cell kill)",[3],71.8 µM
same,TGI,[3],34.8 µM
same,GI50,K562,2.68 µM
same,TGI,K562,8.44 µM
same,CC50,K562,97.7 µM
same,growth at 0.1 µM,NCI-H460 [4],106%
same,growth at 0.1 µM,MDA-MB-231 [5],101%
same,GI50,A498,12.3 µM
same,TGI,A498,26 µM
same,CC50,A498,55 µM
same,growth at 1 µM,T47D [6],91%
same,growth at 0.1 µM,U-251 [7],101%
same,growth at 0.01 µM,HT-29,102%
same,GI50,[8],6.51 µM
same,TGI,[8],21.1 µM
same,CC50,[8],54 µM
same,growth at 0.1 µM,SNB-75,85%
same,growth at 0.1 µM,DU-145,94%
same,growth at 0.01 µM,Malme-3M,92%
same,GI50,LOX IMVI [9],5.87 µM
same,LC50 (concentration killing 50% of cells),LOX IMVI [9],54.6 µM
same,TGI,LOX IMVI [9],20.2 µM
same,growth at 0.1 µM,T47D [10],94%
same,GI50,[11],20.7 µM
same,LC50,[11],> 100 µM
same,TGI,[11],66.9 µM
same,growth at 0.01 µM,MDA-MB-231 [12],101%
same,growth at 1 µM,LOX IMVI [13],99%
same,growth at 100 µM,NCI-H460 [14],-94%
same,growth at 0.01 µM,[15],104%
same,growth at 1 µM,HOP-62,90%
same,growth at 100 µM,LOX IMVI [16],-80%
same,growth at 0.1 µM,786-0,88%
same,growth at 0.01 µM,MDA-MB-435,100%
same,GI50,SF-295,15.9 µM
same,TGI,SF-295,34.9 µM
same,CC50,SF-295,76.5 µM
same,growth at 0.1 µM,ACHN [17],105%
same,growth at 0.1 µM,SNB-19,95%
same,growth at 1 µM,KM12,103%
same,growth at 100 µM,COLO 205,-89%
same,growth at 1 µM,ACHN [18],106%
same,growth at 0.01 µM,[19],102%
same,growth at 100 µM,[20],-46%
CC(C)=CCC[C@H](C)c1ccc(C)c(CNCC2CCNCC2)c1O,growth at 0.01 µM,MCF7,90%
same,growth at 100 µM,SK-MEL-2,-70%
same,growth at 1 µM,HL-60(TB),88%
same,growth at 1 µM,SK-MEL-5,93%
same,growth at 1 µM,[1],95%
same,growth at 100 µM,U-251 [2],-81%
same,GI50,[3],19.8 µM
same,"LC50 (lethal concentration, 50% cell kill)",[3],> 25 µM
same,TGI,[3],> 25 µM
same,GI50,K562,1.01 µM
same,TGI,K562,4.86 µM
same,CC50,K562,19.9 µM
same,growth at 0.1 µM,NCI-H460 [4],98%
same,growth at 0.1 µM,MDA-MB-231 [5],101%
same,GI50,A498,12.1 µM
same,TGI,A498,> 25 µM
same,CC50,A498,> 25 µM
same,growth at 1 µM,T47D [6],84%
same,growth at 0.1 µM,U-251 [7],93%
same,growth at 0.01 µM,HT-29,108%
same,GI50,[8],5.19 µM
same,TGI,[8],18.6 µM
same,CC50,[8],> 25 µM
same,growth at 0.1 µM,SNB-75,90%
same,growth at 0.1 µM,DU-145,96%
same,growth at 0.01 µM,Malme-3M,97%
same,GI50,LOX IMVI [9],3.85 µM
same,LC50 (concentration killing 50% of cells),LOX IMVI [9],16.5 µM
same,TGI,LOX IMVI [9],7.96 µM
same,growth at 0.1 µM,T47D [10],100%
same,GI50,[11],8.56 µM
same,LC50,[11],> 25 µM
same,TGI,[11],> 25 µM
same,growth at 0.01 µM,MDA-MB-231 [12],105%
same,growth at 1 µM,LOX IMVI [13],98%
same,growth at 100 µM,NCI-H460 [14],-68%
same,growth at 0.01 µM,[15],99%
same,growth at 1 µM,HOP-62,97%
same,growth at 100 µM,LOX IMVI [16],-79%
same,growth at 0.1 µM,786-0,87%
same,growth at 0.01 µM,MDA-MB-435,100%
same,GI50,SF-295,3.31 µM
same,TGI,SF-295,7.53 µM
same,CC50,SF-295,17.1 µM
same,growth at 0.1 µM,ACHN [17],94%
same,growth at 0.1 µM,SNB-19,91%
same,growth at 1 µM,KM12,93%
same,growth at 100 µM,COLO 205,-93%
same,growth at 1 µM,ACHN [18],92%
same,growth at 0.01 µM,[19],100%
same,growth at 100 µM,[20],6%
